# Data as given in ChEMBL document CHEMBL1201862, “PubChem BioAssay data set” (2004).
#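 Five compound concentrations were applied to cells in 96-well plates for 48 hours; endpoints were derived by simple linear interpolation of the resulting dose-response curve. GI50: concentration for 50% inhibition of growth.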 Activity calls are given as the source filed them. Cut-off read from the data, not from the text of the source: active = GI50 up to about 1.1 µM and inactive = higher.
# Columns and labels:
# Experiment in all cases: NCI anticancer screen, dose series, 48 h
# HL-60 = test system: HL-60
# MOLT-4 = test system: MOLT-4
# RXF 393 = test system: RXF 393
# HCT-15 = test system: HCT-15
# OVCAR-8 = test system: OVCAR-8
# KM12 = test system: KM12
# A498 = test system: A498
# Malme-3M = test system: Malme-3M
# HOP-92 = test system: HOP-92
# UACC-257 = test system: UACC-257
# HCT-116 = test system: HCT-116
# NCI-H23 = test system: NCI-H23
# CCRF-CEM = test system: CCRF-CEM
# SF-539 = test system: SF-539
# SF-295 = test system: SF-295
# EKVX = test system: EKVX
# HCC 2998 = test system: HCC 2998
# SR = test system: SR
# TK-10 = test system: TK-10
# MCF7 = test system: MCF7
SMILES,GI50 (HL-60),GI50 (MOLT-4),GI50 (RXF 393),GI50 (HCT-15) [µM],GI50 (OVCAR-8),GI50 (KM12),GI50 (A498),GI50 (Malme-3M),GI50 (HOP-92),GI50 (UACC-257),GI50 (HCT-116),GI50 (NCI-H23),GI50 (CCRF-CEM),GI50 (SF-539),GI50 (SF-295),GI50 (EKVX),GI50 (HCC 2998),GI50 (SR),GI50 (TK-10),GI50 (MCF7)
Cc1ccc(C2CC(c3cccc([N+](=O)[O-])c3)=Nc3ccccc3S2)cc1 (centres undefined),20.1 µM (inactive),25.5 µM (inactive),29 µM (inactive),25.5,24.2 µM (inactive),18 µM (inactive),> 54.3 µM (inactive),> 88.9 µM (inactive),7.01 µM (inactive),34.6 µM (inactive),13.3 µM (inactive),22.9 µM (inactive),23.2 µM (inactive),51.5 µM (inactive),50.7 µM (inactive),> 88.1 µM (inactive),82.2 µM (inactive),25.8 µM (inactive),83.2 µM (inactive),–
COc1ccc(C(=O)NNC(=O)c2nsc3ccccc23)cc1,23.3 µM (inactive),34 µM (inactive),> 100 µM (inactive),41.7,60.1 µM (inactive),> 100 µM (inactive),–,–,40.1 µM (inactive),> 100 µM (inactive),83.6 µM (inactive),> 100 µM (inactive),24.7 µM (inactive),> 100 µM (inactive),–,27.2 µM (inactive),> 100 µM (inactive),–,> 100 µM (inactive),–
CC1CC2=C(S(=O)(=O)c3ccccc3)CC(S(=O)(=O)c3ccccc3)(S(=O)(=O)c3ccccc3)CC21 (centres undefined),16.6 µM (inactive),> 100 µM (inactive),> 100 µM (inactive),> 100,> 100 µM (inactive),> 100 µM (inactive),> 100 µM (inactive),–,–,> 100 µM (inactive),21.9 µM (inactive),> 100 µM (inactive),27.4 µM (inactive),> 100 µM (inactive),> 100 µM (inactive),> 100 µM (inactive),> 100 µM (inactive),> 100 µM (inactive),> 100 µM (inactive),–
CC/C=C\C/C=C\C/C=C\CCCCCCCC(=O)OC [METHYL LINOLENATE],22.8 µM (inactive),87.5 µM (inactive),–,> 100,> 100 µM (inactive),> 100 µM (inactive),> 100 µM (inactive),> 100 µM (inactive),> 100 µM (inactive),> 100 µM (inactive),91.6 µM (inactive),> 100 µM (inactive),45.8 µM (inactive),> 100 µM (inactive),> 100 µM (inactive),> 100 µM (inactive),> 100 µM (inactive),–,–,> 100 µM (inactive)
O=C(OCCOC(=O)c1ccc2c(c1)C1(SCCS1)c1ccccc1-2)c1ccc2c(c1)C1(SCCS1)c1ccccc1-2,> 100 µM (inactive),> 100 µM (inactive),–,> 100,> 100 µM (inactive),> 100 µM (inactive),> 100 µM (inactive),> 100 µM (inactive),–,> 100 µM (inactive),> 100 µM (inactive),> 100 µM (inactive),> 100 µM (inactive),> 100 µM (inactive),> 100 µM (inactive),> 100 µM (inactive),> 100 µM (inactive),> 100 µM (inactive),–,–
CCC(=O)NC(Nc1cccc(F)c1)(C(F)(F)F)C(F)(F)F,86.9 µM (inactive),57 µM (inactive),> 100 µM (inactive),> 100,> 100 µM (inactive),> 100 µM (inactive),–,–,> 100 µM (inactive),> 100 µM (inactive),> 100 µM (inactive),> 100 µM (inactive),60 µM (inactive),> 100 µM (inactive),> 100 µM (inactive),67.3 µM (inactive),> 100 µM (inactive),> 100 µM (inactive),> 100 µM (inactive),> 100 µM (inactive)
O=C1Nc2ccc(Cl)cc2/C1=C\c1c(Cl)nc2sccn12,4.07 µM (inactive),2.59 µM (inactive),18.6 µM (inactive),2.67,50.8 µM (inactive),2.25 µM (inactive),0.0632 µM (active),> 100 µM (inactive),> 100 µM (inactive),> 100 µM (inactive),4.23 µM (inactive),59 µM (inactive),10.6 µM (inactive),–,3.96 µM (inactive),–,2.14 µM (inactive),0.338 µM (active),8.47 µM (inactive),–
O=C1CCC(NC(=O)Cc2ccc(O)cc2)C(=O)N1 (centres undefined),–,–,–,> 2500,> 2500 µM (inactive),> 2500 µM (inactive),> 2500 µM (inactive),–,> 2500 µM (inactive),> 2500 µM (inactive),> 2500 µM (inactive),> 2500 µM (inactive),–,–,> 2500 µM (inactive),> 2500 µM (inactive),–,–,> 2500 µM (inactive),–
C[C@H]1S[C@@H](c2ccc(Cl)cc2Cl)N(NC(=O)c2ccncc2)C1=O,98.4 µM (inactive),18.4 µM (inactive),25.4 µM (inactive),47.9,> 100 µM (inactive),> 100 µM (inactive),> 100 µM (inactive),> 100 µM (inactive),60.5 µM (inactive),–,34.5 µM (inactive),50.4 µM (inactive),11.3 µM (inactive),–,–,–,–,79.4 µM (inactive),–,45 µM (inactive)
